Patent US20030152599A1, “Composition for external use” (Shiseido Co., Ltd., priority 1999, published 2003)

Assays:
desmoglein = experiment: Evaluation for promotion of decomposition of desmoglein (keratinous layer sheet, anti-desmoglein immunoblot); type: biochemical; conditions: applied to both sides of keratinous layer sheet, 37° C., humidity 75%, one week; versus glycolic acid positive control
Protocol: To both sides of a sheet (1.5±0.2 mg) of the keratinous layer was applied 2-amino-1,3-propanediol, 2-amino-1,3-propanediol hydrochloride, or glycolic acid (5 μL for each side). Glycolic acid, which is one of AHA's, was used as a positive control. The sheet was sandwiched by stainless steel mesh sheets and allowed to stand at 37° C. with a humidity of 75% for one week. Subsequently, the sheet was transferred into a microtube, and an extracting liquid (100 μL) was added to the microtube. The mixture was maintained at 37° C. overnight to extract protein from the mixture. The extract was subjected to electrophoresis by use of […], and the gel was transferred to a PVDF membrane. An anti-desmoglein antibody and an alkaline-phosphatase-labeled anti-IgG sequentially reacted with the […], and the resultant gel was colored with alkaline phosphatase. The image of bands formed on the membrane was captured by an image-scanner, and was analyzed, to obtain the amount of desmoglein. The test was performed twice, and an average value of the amount was calculated. The average values of samples were compared.
The effect of 2-amino-2-methyl-1,3-propanediol and its hydrochloride was investigated in accordance with the same method.

keratinous layer [1] = experiment: Turnover rate of the keratinous layer (decrease in fluorescence from the skin surface); type: in vivo, human (middle-aged subjects); conditions: 1% aqueous solution, inside of the forearm, three times per day for four days, measured on the fifth day
Protocol: (§1) The effect of 2-amino-1,3-propanediol and 2-amino-1,3-propanediol hydrochloride on mitigation of decrease in turnover rate of the keratinous layer induced by aging was investigated in four middle-aged subjects. The turnover rate, water content of the keratinous layer, and elasticity of the skin were evaluated. 1% Aqueous solutions of 2-amino-1,3-propanediol and its hydrochloride were employed as the representative compositions of the present invention. A 1% aqueous solution of glycolic acid—which is one type of AHA—was employed as a comparative composition, and water (purified water) was employed as a reference.
(§2) A 1% phosphor solution (1 mL) in ethanol was added to an outer syringe (length: about 2 cm) of a 10-mL disposable injector, to bring the solution into contact with the skin for one minute (four portions on the inside of the forearm). From the next day, each sample including water was applied to the phosphor-contacted portions. Application was performed three times per day and continued for four consecutive days.
On the fifth day after the test was initiated, intensity of fluorescence from the skin surface was measured by use of a fluorescence-detector designed for this particular use. Decrease in fluorescence was employed as an index of the turnover rate of the keratinous layer. The larger the decrease in fluorescence, the greater the turnover rate.
(§3) The turnover rate, water content of keratinous layer and elasticity of the skin in case of 2-amino-2-methyl-1,3-propanediol and its hydrochloride were also investigated.

keratinous layer [2] = experiment: Water content of the keratinous layer (electrical conductivity, Skicon-200); type: in vivo, human (middle-aged subjects); conditions: 1% aqueous solution, inside of the forearm, three times per day for four days
Protocol: as §1, §2
Water content of the keratinous layer was measured by use of an apparatus for measuring electrical conductivity (Skicon-200, product of IBS). The conductivity was employed as an index of water content. Thus, the higher the water content, the higher the electrical conductivity.
as §3

skin = experiment: Elasticity of the skin (Cutometer SEM474, Ur/Uf); type: in vivo, human (middle-aged subjects); conditions: 1% aqueous solution, inside of the forearm, three times per day for four days; Ur/Uf at 300 hPa
Protocol: as §1, §2
Elasticity of the skin was measured by use of Cutometer SEM474 (product of Courage+Khazaka). The elasticity was obtained from extension (Uf) and retraction (Ur) of the skin when a negative pressure of 300 hPa was repeatedly applied to the skin by use of a probe having a diameter of 2 mm. The ratio (Ur/Uf) was employed as an index of elasticity of the skin. The higher the ratio, the higher the elasticity of the skin.
as §3

Cl.NC(CO)CO [2-amino-1,3-propanediol hydrochloride] was tested, and the “effect of promoting decomposition of desmoglein” value (“effect” below) (desmoglein) was “stronger effect of promoting decomposition of desmoglein than does glycolic acid”, the “mitigation of decrease in turnover rate of the keratinous layer induced by aging” value (from here on “mitigation of decrease”) (keratinous layer [1]) was “mitigate decrease in turnover rate induced by aging” and the “water content of the keratinous layer” value (keratinous layer [2]) was “improve water content of the keratinous layer”. For the same compound, the “elasticity of the skin” value (skin) was “improve”.

With NC(CO)CO [2-amino-1,3-propanediol] the “effect” value (desmoglein) was “stronger effect of promoting decomposition of desmoglein than does glycolic acid”, the “mitigation of decrease” value (keratinous layer [1]) was “mitigate decrease in turnover rate induced by aging” and the “water content of the keratinous layer” value (keratinous layer [2]) was “improve water content of the keratinous layer”. The “elasticity of the skin” value (skin) was “improve”.

CC(N)(CO)CO.Cl [2-amino-2-methyl-1,3-propanediol hydrochloride] was tested, and the “effect” value (desmoglein) was “stronger effect of promoting decomposition of desmoglein than does glycolic acid”, the “mitigation of decrease” value (keratinous layer [1]) was “more strongly than does glycolic acid” and the “water content of the keratinous layer” value (keratinous layer [2]) was “more strongly than does glycolic acid”. The “elasticity of the skin” value (skin) was “more strongly than does glycolic acid”.

With CC(N)(CO)CO [2-amino-2-methyl-1,3-propanediol] the “effect” value (desmoglein) was “stronger effect of promoting decomposition of desmoglein than does glycolic acid”, the “mitigation of decrease” value (keratinous layer [1]) was “more strongly than does glycolic acid” and the “water content of the keratinous layer” value (keratinous layer [2]) was “more strongly than does glycolic acid”. For the same compound, the “elasticity of the skin” value (skin) was “more strongly than does glycolic acid”.
